Experimental data taken from patent US12227533B2, “Crystalline forms and methods of producing crystalline forms of a compound” (Viking Therapeutics, Inc., priority 2018, dated 2025).
Values after ≈ are worked out from the molar mass of the structure shown. Values belong to the compound of their own block, whether it stands above or below them.

Columns and labels:
Assay type in all cases: physicochemical
[1] = Dynamic vapor sorption (DVS)
Procedure: The sample (9.869 mg) was placed on a Pt pan, and the sample was allowed to equilibrate at 25° C. at 50% relative humidity (r.h.) before starting a pre-defined humidity program. The predefined humidity programs include 1.0 hours 50%, from 50% r.h. to 0% r.h.; 5% r.h. per hour, 5 hours at 0% r.h., from 0% r.h. to 93% r.h.; 5% r.h. per hour, 5 hours at 93% r.h., from 93% r.h. to 50% r.h.; and 5% r.h. per hour, 1 hours at 50% r.h.
(§1) (approx. ±0.1%). After storing for 3 days at 96% r.h. at room temperature (Test 49), FIG. 29a, and at 40° C. […] The water uptake measured by the Karl Fischer method was very low (<0.2%). […] The broad background in the XRPD diagram, FIG. 26, is due to water remaining in the sample after careful drying at room temperature following filtration of the suspension. The Karl Fischer result indicates 45% water content.

[2] = Storage in humidity chamber at 96% r.h., solid form checked by XRPD; conditions: for solid form by XRPD after storing in humidity chamber: 96% r.h.
Procedure: Desolvation of the solvates tends to produce the amorphous form.
as §1

[3] = Karl Fischer moisture analysis after humidity storage; conditions: after storing 3 days at 96% r.h.
Procedure: as §1, with “Karl Fischer moisture analyses were carried out according to standard procedures. […] (approx.” for “(approx.”

[4] = Phase equilibration experiment in water, solid form checked by XRPD; conditions: stirring 3 days, 23° C. (room temperature)
Procedure: as §1

[5] = Phase equilibration experiments in EtOAc/heptane 1:7 v/v; conditions: 3 days
[6] = Measurement of the approximate solubility at ambient temperature; conditions: organic solvent or mixture, 23° C.
Procedure: In some embodiments, to determine the approximate solubility at room temperature, solvent was added in steps to the solid material. After every addition, the sample was well stirred. The addition of solvent was continued until complete dissolution or until 20 ml of solvent was added.
In other embodiments, aliquots of the test solvent were added to an accurately weighed amount of the compound of Formula I in small increments (usually 100-1000 μL), with sonication until complete dissolution was obtained, if possible. Dissolution was determined visually. The actual solubilities may be higher than reported due to slow dissolution rates or the use of excess solvent. The approximate solubility was determined in mg/mL to the nearest whole number.
The approximate solubility at ambient temperature must be known in order to carry out systematic crystallization experiments.

water uptake (DVS) ([1]; FIG. 29a): less than 0.2 % by weight | hygroscopicity ([1]; conclusion from DVS and humidity tests): non-hygroscopic | solid form by XRPD after storing in humidity chamber ([2]; 23° C. (room temperature), 3 days): no transformation of the crystal form | solid form by XRPD after storing in humidity chamber ([2]; 40° C., 3 days): no transformation of the crystal form | water uptake measured by the Karl Fischer method [3]: < 0.2% | solid form by XRPD after phase equilibration in water [4]: no transformation of the crystal form | solid form by XRPD after phase equilibration in water ([4]; listed as crystalline Form C): no transformation | solid form after phase equilibration in EtOAc/heptane 1:7 v/v ([5]; 78° C.): no transformation | solid form after phase equilibration in EtOAc/heptane 1:7 v/v ([5]; room temperature): no transformation
SMILES: Cc1cc(OC[P@@]2(=O)OCC[C@@H](c3cccc(Cl)c3)O2)cc(C)c1Cc1ccc(O)c(C(C)C)c1 [Crystal form C]
solid form by XRPD following DVS analysis ([1]; FIGS. 24 and 25): did not transition to a different polymorph | hydrate formation ([2]; conclusion from DVS, humidity storage and water equilibration): does not show any evidence of hydrate formation

solubility ([6]; methyl ethyl ketone, thermodynamic from solid, methy ethyl ketone): > 480 mg/mL | solubility ([6]; thermodynamic from solid, 1-octanol): > 200 mg/mL | solubility ([6]; thermodynamic from solid, 2,2,2-trifluoroethanol): ~195 mg/mL (≈ 379 mM) | solubility ([6]; thermodynamic from solid, EtOAc): ~772 mg/mL (≈ 1500 mM) | solubility ([6]; thermodynamic from solid, EtOAc/n-heptane 75:25 v/v): > 200 mg/mL | solubility ([6]; thermodynamic from solid, N-methyl-2-pyrrolidone (NMP)): > 200 mg/mL | solubility ([6]; thermodynamic from solid, THF): > 384 mg/mL | solubility ([6]; thermodynamic from solid, THF/water 75:25 v/v): 190 mg/mL (≈ 369 mM) | solubility ([6]; thermodynamic from solid, acetic acid): > 200 mg/mL | solubility ([6]; thermodynamic from solid, acetone/n-heptane 75:25 v/v): > 200 mg/mL | solubility ([6]; thermodynamic from solid, acetone/water 75:25 v/v): > 200 mg/mL | solubility ([6]; thermodynamic from solid, acetonitrile): > 480 mg/mL | solubility ([6]; thermodynamic from solid, acetonitrile/water 75:25 v/v): > 200 mg/mL | solubility ([6]; thermodynamic from solid, chloroform): > 388 mg/mL | solubility ([6]; thermodynamic from solid, dichloromethane): > 480 mg/mL | solubility ([6]; thermodynamic from solid, ethanol): > 200 mg/mL | solubility ([6]; thermodynamic from solid, ethanol/n-heptane 75:25 v/v): > 200 mg/mL | solubility ([6]; thermodynamic from solid, ethanol/water 75:25 v/v): > 200 mg/mL | solubility ([6]; thermodynamic from solid, methyl nonafluorobutyl ether): < 39 mg/mL | solubility ([6]; thermodynamic from solid, methylcyclohexane): < 40 mg/mL | solubility ([6]; thermodynamic from solid, n-heptane): < 38 mg/mL | solubility ([6]; thermodynamic from solid, nitrobenzene): > 200 mg/mL | solubility ([6]; thermodynamic from solid, pyridine): > 200 mg/mL | solubility ([6]; thermodynamic from solid, tert-butyl methyl ether (TBME)): > 200 mg/mL | solubility ([6]; thermodynamic from solid, tetrahydrofuran (THF)/n-heptane 75:25 v/v): > 200 mg/mL | solubility ([6]; thermodynamic from solid, toluene): > 200 mg/mL
SMILES: Cc1cc(OC[P@@]2(=O)OCC[C@@H](c3cccc(Cl)c3)O2)cc(C)c1Cc1ccc(O)c(C(C)C)c1 [Starting Material A]

SMILES: Cc1cc(OC[P@@]2(=O)OCC[C@@H](c3cccc(Cl)c3)O2)cc(C)c1Cc1ccc(O)c(C(C)C)c1 [THF solvate]
solid form by XRPD after storing in humidity chamber ([2]; 23° C. (room temperature), 8 weeks): a mixture of the solvate and the amorphous form
